Values of other authors, collected in paper PMC2777304 (PLoS Pathogens, 2009).
Structures can show the parent of a compound that is named as a salt.

Conditions: mouse, in vivo

CCN(CC)CCCC(C)Nc1c2ccc(Cl)cc2nc2ccc(OC)cc12 (stereo not shown) [quinacrine, Quinacrine dihydrochloride]
Highest nontoxic tolerable dose: 40 mg/kg/day
